{
  "source": "patent US8192962B2",
  "about": "“Processes for detecting toxic substances” (Daikin Industries, Ltd., priority 2001, dated 2012)",
  "tested_on": "Genes belonging to other category",
  "experiment": "DNA chip mRNA expression in yeast, genes belonging to other category (Table 9)",
  "format": "cell-based, Saccharomyces cerevisiae S288C",
  "method_in_brief": "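Expression change after 2 h toxicant exposure (growth-inhibiting, sub-lethal) of log-phase S. cerevisiae S288C at 25° C. Oligo-dT-purified mRNA was labeled with Cy3-dUTP or Cy5-dUTP and hybridized >12 h at 65° C. to a genome-wide chip; ratio of scanned fluorescence to control.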",
  "data": [
    {"smiles": "CCCCCCCCCCCCOS(=O)(=O)[O-].[Na+]", "note": "[(18), sodium lauryl sulfate]", "values": [
      {"measurement": "The level of expressed mRNA in the presence of chemical substance/The level of expressed mRNA in the absence of chemical substance", "setting": "yeast gene YDR392W", "value": 1.2},
      {"measurement": "The level of expressed mRNA in the presence of chemical substance/The level of expressed mRNA in the absence of chemical substance", "setting": "yeast gene YDR403W", "value": 1.0},
      {"measurement": "The level of expressed mRNA in the presence of chemical substance/The level of expressed mRNA in the absence of chemical substance", "setting": "yeast gene YDR432W", "value": 0.7},
      {"measurement": "The level of expressed mRNA in the presence of chemical substance/The level of expressed mRNA in the absence of chemical substance", "setting": "yeast gene YDR481C", "value": 1.4},
      {"measurement": "The level of expressed mRNA in the presence of chemical substance/The level of expressed mRNA in the absence of chemical substance", "setting": "yeast gene YDR510W", "value": 1.5},
      {"measurement": "The level of expressed mRNA in the presence of chemical substance/The level of expressed mRNA in the absence of chemical substance", "setting": "yeast gene YEL042W", "value": 0.8},
      {"measurement": "The level of expressed mRNA in the presence of chemical substance/The level of expressed mRNA in the absence of chemical substance", "setting": "yeast gene YEL066W", "value": 1.1},
      {"measurement": "The level of expressed mRNA in the presence of chemical substance/The level of expressed mRNA in the absence of chemical substance", "setting": "yeast gene YER039C", "value": 1.1},
      {"measurement": "The level of expressed mRNA in the presence of chemical substance/The level of expressed mRNA in the absence of chemical substance", "setting": "yeast gene YER066W", "value": 1.1},
      {"measurement": "The level of expressed mRNA in the presence of chemical substance/The level of expressed mRNA in the absence of chemical substance", "setting": "yeast gene YER107C", "value": 1.2},
      {"measurement": "The level of expressed mRNA in the presence of chemical substance/The level of expressed mRNA in the absence of chemical substance", "setting": "yeast gene YER130C", "value": 2.5},
      {"measurement": "The level of expressed mRNA in the presence of chemical substance/The level of expressed mRNA in the absence of chemical substance", "setting": "yeast gene YFL022C", "value": 0.8},
      {"measurement": "The level of expressed mRNA in the presence of chemical substance/The level of expressed mRNA in the absence of chemical substance", "setting": "yeast gene YFL028C", "value": 1.5},
      {"measurement": "The level of expressed mRNA in the presence of chemical substance/The level of expressed mRNA in the absence of chemical substance", "setting": "yeast gene YFL029C", "value": 1.4},
      {"measurement": "The level of expressed mRNA in the presence of chemical substance/The level of expressed mRNA in the absence of chemical substance", "setting": "yeast gene YFL043C", "value": 1.2},
      {"measurement": "The level of expressed mRNA in the presence of chemical substance/The level of expressed mRNA in the absence of chemical substance", "setting": "yeast gene YFR004W", "value": 1.4},
      {"measurement": "The level of expressed mRNA in the presence of chemical substance/The level of expressed mRNA in the absence of chemical substance", "setting": "yeast gene YFR014C", "value": 2.9},
      {"measurement": "The level of expressed mRNA in the presence of chemical substance/The level of expressed mRNA in the absence of chemical substance", "setting": "yeast gene YFR050C", "value": 1.7},
      {"measurement": "The level of expressed mRNA in the presence of chemical substance/The level of expressed mRNA in the absence of chemical substance", "setting": "yeast gene YGL093W", "value": 1.2},
      {"measurement": "The level of expressed mRNA in the presence of chemical substance/The level of expressed mRNA in the absence of chemical substance", "setting": "yeast gene YGL094C", "value": 0.9},
      {"measurement": "The level of expressed mRNA in the presence of chemical substance/The level of expressed mRNA in the absence of chemical substance", "setting": "yeast gene YGL141W", "value": 1.2},
      {"measurement": "The level of expressed mRNA in the presence of chemical substance/The level of expressed mRNA in the absence of chemical substance", "setting": "yeast gene YGL150C", "value": 0.8},
      {"measurement": "The level of expressed mRNA in the presence of chemical substance/The level of expressed mRNA in the absence of chemical substance", "setting": "yeast gene YGL158W", "value": 1.1},
      {"measurement": "The level of expressed mRNA in the presence of chemical substance/The level of expressed mRNA in the absence of chemical substance", "setting": "yeast gene YGL166W", "value": 1.9},
      {"measurement": "The level of expressed mRNA in the presence of chemical substance/The level of expressed mRNA in the absence of chemical substance", "setting": "yeast gene YGL207W", "value": 0.8},
      {"measurement": "The level of expressed mRNA in the presence of chemical substance/The level of expressed mRNA in the absence of chemical substance", "setting": "yeast gene YGL229C", "value": 0.9},
      {"measurement": "The level of expressed mRNA in the presence of chemical substance/The level of expressed mRNA in the absence of chemical substance", "setting": "yeast gene YGR036C", "value": 1.1},
      {"measurement": "The level of expressed mRNA in the presence of chemical substance/The level of expressed mRNA in the absence of chemical substance", "setting": "yeast gene YGR048W", "value": 1.2},
      {"measurement": "The level of expressed mRNA in the presence of chemical substance/The level of expressed mRNA in the absence of chemical substance", "setting": "yeast gene YGR135W", "value": 1.9},
      {"measurement": "The level of expressed mRNA in the presence of chemical substance/The level of expressed mRNA in the absence of chemical substance", "setting": "yeast gene YGR136W", "value": 1.8},
      {"measurement": "The level of expressed mRNA in the presence of chemical substance/The level of expressed mRNA in the absence of chemical substance", "setting": "yeast gene YGR186W", "value": 1.2},
      {"measurement": "The level of expressed mRNA in the presence of chemical substance/The level of expressed mRNA in the absence of chemical substance", "setting": "yeast gene YGR189C", "value": 1.7},
      {"measurement": "The level of expressed mRNA in the presence of chemical substance/The level of expressed mRNA in the absence of chemical substance", "setting": "yeast gene YGR213C", "value": 8.5},
      {"measurement": "The level of expressed mRNA in the presence of chemical substance/The level of expressed mRNA in the absence of chemical substance", "setting": "yeast gene YGR232W", "value": 1.2},
      {"measurement": "The level of expressed mRNA in the presence of chemical substance/The level of expressed mRNA in the absence of chemical substance", "setting": "yeast gene YGR257C", "value": 1.3},
      {"measurement": "The level of expressed mRNA in the presence of chemical substance/The level of expressed mRNA in the absence of chemical substance", "setting": "yeast gene YHL024W", "value": 1.4},
      {"measurement": "The level of expressed mRNA in the presence of chemical substance/The level of expressed mRNA in the absence of chemical substance", "setting": "yeast gene YHR004C", "value": 1.6},
      {"measurement": "The level of expressed mRNA in the presence of chemical substance/The level of expressed mRNA in the absence of chemical substance", "setting": "yeast gene YHR027C", "value": 1.0},
      {"measurement": "The level of expressed mRNA in the presence of chemical substance/The level of expressed mRNA in the absence of chemical substance", "setting": "yeast gene YHR071W", "value": 1.0},
      {"measurement": "The level of expressed mRNA in the presence of chemical substance/The level of expressed mRNA in the absence of chemical substance", "setting": "yeast gene YHR139C", "value": 1.3},
      {"measurement": "The level of expressed mRNA in the presence of chemical substance/The level of expressed mRNA in the absence of chemical substance", "setting": "yeast gene YHR142W", "value": 1.3},
      {"measurement": "The level of expressed mRNA in the presence of chemical substance/The level of expressed mRNA in the absence of chemical substance", "setting": "yeast gene YHR163W", "value": 1.2},
      {"measurement": "The level of expressed mRNA in the presence of chemical substance/The level of expressed mRNA in the absence of chemical substance", "setting": "yeast gene YIL050W", "value": 1.1},
      {"measurement": "The level of expressed mRNA in the presence of chemical substance/The level of expressed mRNA in the absence of chemical substance", "setting": "yeast gene YIL076W", "value": 2.5},
      {"measurement": "The level of expressed mRNA in the presence of chemical substance/The level of expressed mRNA in the absence of chemical substance", "setting": "yeast gene YIL123W", "value": 1.0},
      {"measurement": "The level of expressed mRNA in the presence of chemical substance/The level of expressed mRNA in the absence of chemical substance", "setting": "yeast gene YIL140W", "value": 1.0},
      {"measurement": "The level of expressed mRNA in the presence of chemical substance/The level of expressed mRNA in the absence of chemical substance", "setting": "yeast gene YIL142W", "value": 0.8},
      {"measurement": "The level of expressed mRNA in the presence of chemical substance/The level of expressed mRNA in the absence of chemical substance", "setting": "yeast gene YIR039C", "value": 1.1}
    ]}
  ]
}
